{"source": "patent US7993928B2", "about": "“Detection of blood plasma Danshensu and Salvianolic acid B dissipating blood stasis botanical” (Shanghai Sundise, priority 2007, dated 2011)", "conditions": "mammal plasma collected 0.5 hours after being drenched with strengthening body resistance and dissipating blood stasis botanical (FZHY); solid-phase extraction, UPLC/MS negative ion mode", "protocol": "Method of pretreating mammalian blood plasma sample: Collect mammal plasma containing drugs 0.5 hours after being administered the strengthening body resistance and dissipating blood stasis botanical, misce bene after adding 2-5 mol/L phosphoric acid, and the volume ratio between the blood plasma and phosphoric acid is 1:2-3, applying the blood plasma with drugs to small column of WATERS OASIS HLB (a type of chromatographic column) activated by methanol and water; after leaching with water and 80-100% methanol and eluting with 0.2-1% ammonia-methanol, drying and enriching the eluent under the condition of 25-30° C., and redissolving the eluent with mobile phase.\nUPLC/MS detection method: The analysis conditions of the applied UPLC/MS method in this invention, UPLC condition: chromatographic column: ACQUITY HPLC BEH C18 (a type of chromatographic column), 2.1×100 mm, mobile phase A: Water-Acetonitrile-Formic acid 95:5:0.1 v/v/v, mobile phase B: Acetonitrile-Formic acid 100:0.1 v/v, eluting in accordance with the following gradient: […]"}
{"smiles": "O=C(O)[C@H](O)Cc1ccc(O)c(O)c1", "note": "[Danshensu]", "values": [{"measurement": "Detection in the blood plasma", "result": "can be detected"}]}
{"smiles": "O=C(/C=C/c1ccc(O)c2c1[C@H](C(=O)O[C@H](Cc1ccc(O)c(O)c1)C(=O)O)[C@@H](c1ccc(O)c(O)c1)O2)O[C@H](Cc1ccc(O)c(O)c1)C(=O)O", "note": "[Salvianolic acid B]", "values": [{"measurement": "Detection in the blood plasma", "result": "can be detected"}]}
